Values quoted from earlier work in patent EP3142678B1, “USE OF CRANBERRY PROANTHOCYANIDINS WITH HERBAL COMPONENTS FOR TREATING AND PREVENTING URINARY TRACT INFECTIONS” (Specchiasol S.r.l., priority 2014, dated 2015).
Like-named read-outs stand apart in the source and are kept apart here.

System: slime-producing uropathogenic Escherichia coli strains
Settings: for percentage of residual slime relative to the control: range over four strains; for reduced biofilms: fosfomycin 2000 mg/l

SMILES	percentage of residual slime relative to the control (0.007 mg/ml of NAC)	percentage of residual slime relative to the control (8 mg/ml of NAC)	remaining exopolysaccharide matrix, of the amount found with the untreated control (pre-formed biofilms, NAC at the highest concentrations used)	reduced biofilms (initial (5 h) biofilms)	reduced biofilms (mature (48 h) biofilms)
CC(=O)N[C@@H](CS)C(=O)O [NAC, N-Acetylcysteine]	62.5-100%	26.2-64.1%	25-68%		
C[C@@H]1O[C@@H]1P(=O)(O)O [fosfomycin]				40-57%	41-49%
